According to patent US11344510B2, “Arylcyclohexylamine derivatives and their use in the treatment of psychiatric disorders” (Gilgamesh Pharmaceuticals, Inc., priority 2019, dated 2022):
Entries after “also recorded” stand apart in the source; their conditions may differ.

Columns and labels:
[1] = test system: T1, monoamine transporters, MATs (SERT, NET, DAT, VMAT2); assay: Monoamine uptake inhibition, monoamine transporters collectively; assay type: cell-based; conditions: uptake inhibition
T1 construct: rows headed: activity at MATs; stably transfected cells expressing the MAT of interest (HEK293 cells for SERT and NET)
Experimental: The ability of the compounds of the present invention to inhibit uptake of monoamines by the serotonin transporter (SERT), norepinephrine transporter (NET), dopamine transporter (DAT), and vesicular monoamine transporter 2 (VMAT2) (collectively monoamine transporters, MATs) was measured using fluorescent substrate uptake assays in transfected cells (Table 14). The binding affinities of select compounds were also determined in radioligand displacement assays at SERT, NET, and/or DAT (Table 14).
Uptake Inhibition. The ability of test compounds to block monoamine uptake by SERT, NET, DAT, and VMAT2 was determined using the Neurotransmitter Transporter Uptake Assay Kit manufactured by Molecular Devices (Cat #R8173). Briefly, stably transfected cells expressing the MAT of interest (HEK293 cells for SERT and NET; CHO cells for DAT) were grown and plated into 384-well plates at a concentration of 20,000 cells per well. Plates were then incubated for 16-20 h at 37° C. and 5% CO2. The medium was then aspirated and replaced with 25 μL of assay buffer (20 mM HEPES in HBSS, containing 0.1% BSA) containing the test compounds at the appropriate concentrations. Plates were then centrifuged at 300 rpm for 15 s and then incubated at 37° C. for 30 minutes. At this time, 25 μL of the proprietary fluorescent dye solution was added, the plates were incubated at 37° C. for 60 minutes, and then fluorescence was quantified on a plate reader (excitation wavelength=440 nm, emission wavelength=520 nm). The proprietary dye solution contains a mixture of 1) a fluorescent dye that mimics the endogenous substrates of MATs and is thereby actively transported to the intracellular compartment in the absence of an inhibitor and 2) a masking dye that inhibits the fluorescence of dye 1 in the extracellular compartment. Therefore, the overall fluorescence of the system increases as the fluorescent dye is transported into the cells.

[2] = biological target: T2, serotonin transporter (SERT) (Homo sapiens, UniProt P31645); assay: Fluorescent substrate uptake inhibition, SERT; assay type: cell-based; conditions: 10 μM, HEK293 cells expressing SERT
T2 construct: expressed in transfected cells; host or cells: HEK293

[3] = biological target: T3, dopamine transporter (DAT) (Homo sapiens, UniProt Q01959); assay: Fluorescent substrate uptake inhibition, DAT; assay type: cell-based; conditions: 10 μM, CHO cells expressing DAT
T3 construct: expressed in transfected cells; host or cells: CHO (uptake)

[4] = biological target: T4, norepinephrine transporter (NET) (Homo sapiens, UniProt P23975); assay: Fluorescent substrate uptake inhibition, NET; assay type: cell-based; conditions: 10 μM, HEK293 cells expressing NET
T4 construct: expressed in transfected cells; host or cells: HEK293

[5] = biological target: T5, vesicular monoamine transporter 2 (VMAT2) (Homo sapiens, UniProt Q05940); assay: Fluorescent substrate uptake inhibition, VMAT2; assay type: cell-based; conditions: 10 μM, transfected cells
T5 construct: expressed in transfected cells

[6] = RLM stability (High Activity); assay type: in vitro ADME, Sprague Dawley rats
Experimental: (§1) RLM Stability (High Activity). Pooled RLM from male Sprague Dawley rats (XenoTech R1000, lot #1910100) were used. Microsomal incubations were carried out in 96-well plates in 5 aliquots of 40 μL each (one for each time point). Liver microsomal incubation medium consisted of PBS (100 mM, pH 7.4), MgCl2 (3.3 mM), NADPH (3 mM), glucose-6-phosphate (5.3 mM), and glucose-6-phosphate dehydrogenase (0.67 units/mL), with 1.0 mg of liver microsomal protein per mL. Control incubations were performed by replacing the NADPH-cofactor system with PBS. Test compounds (1 μM, final solvent concentration 1.6%) were incubated with microsomes at 37° C., shaking at 100 rpm. Incubations were performed in duplicate. Five time points over 60 minutes were analyzed. The reactions were stopped by adding 9 volumes of 90% acetonitrile-water to incubation aliquots, followed by protein sedimentation by centrifugation at 5500 rpm for 3 minutes. Supernatants were analyzed for parent compound remaining using a fit-for-purpose liquid chromatography-tandem mass spectrometry (LC-MS/MS) method, with authentic samples of each analyte used for identity confirmation.
Data Analysis. The elimination constant (kel), half-life (t1/2) and intrinsic clearance (Clint) were determined in a plot of […] versus time, using linear regression analysis.

[7] = Formation of metabolites 11R/11S in RLM (High Activity conditions); assay type: in vitro ADME, Sprague Dawley rats; conditions: LC-MS/MS
Experimental: as §1, with “The reactions were stopped by adding 9 volumes of 90% acetonitrile-water to incubation aliquots, followed by protein sedimentation by centrifugation at 5500 rpm for 3 minutes.” left out
This condition was also used for experiments measuring the formation of metabolite 11R from compounds 14R and 88R and formation of metabolite 11S from compounds 14S and 88S. The concentrations of 11R and 11S formed during the incubations were quantified using a fit-for-purpose liquid chromatography-tandem mass spectrometry (LC-MS/MS) method, with authentic samples of each analyte used for calibration and identity confirmation.

[8] = HLM stability (High Activity); assay type: in vitro ADME; conditions: both sexes, human, liver microsomes, pH 7.4, Condition 2 (High Activity), 1.0 mg protein/mL
Summary of the method: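 Pooled male and female human liver microsomes, 1.0 mg protein/mL, in 100 mM PBS pH 7.4 with NADPH-regenerating system; compound 1 μM at 37° C, five time points over 60 min. Parent remaining by LC-MS/MS; kel, t1/2 and Clint from linear regression of ln(AUC) versus time.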

[9] = biological target: MK-801 binding site of the N-methyl-D-aspartate receptor (NMDAR); assay: NMDAR radioligand binding with [3H]MK-801, Method B; set-up: species or system Sprague Dawley rat; conditions: MK-801 site, Method B, male Sprague Dawley rat cortex, 5.0 nM [3H]MK-801; read-out: NMDAR Ki ± SEM
Experimental: Radioligand Binding—Method B. Affinity of the test compounds for NMDAR was determined in radioligand binding experiments with [^3H]MK-801 by WuXi AppTec (Hong Kong) Limited, under the conditions described in Table 13.

[10] = MLM stability (High Activity); assay type: in vitro ADME, BALB/c mice; conditions: male, BALB/c, mouse, liver microsomes, pH 7.4, Condition 2 (High Activity), 1.0 mg protein/mL
Summary of the method: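 Pooled male BALB/c mouse liver microsomes (1.0 mg/mL) in 100 mM PBS pH 7.4 with NADPH-regenerating system; compound 1 μM, 37 °C, five time points over 60 min, duplicate; NADPH-free controls. Parent remaining by LC-MS/MS; kel, t1/2 and Clint from linear regression of ln(AUC) versus time.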

[11] = male, Sprague Dawley, rat, liver microsomes, pH 7.4, Condition 2 (High Activity), 1 μM, 1.0 mg protein/mL

T3 sequence (Q01959 whole entry, species assumed): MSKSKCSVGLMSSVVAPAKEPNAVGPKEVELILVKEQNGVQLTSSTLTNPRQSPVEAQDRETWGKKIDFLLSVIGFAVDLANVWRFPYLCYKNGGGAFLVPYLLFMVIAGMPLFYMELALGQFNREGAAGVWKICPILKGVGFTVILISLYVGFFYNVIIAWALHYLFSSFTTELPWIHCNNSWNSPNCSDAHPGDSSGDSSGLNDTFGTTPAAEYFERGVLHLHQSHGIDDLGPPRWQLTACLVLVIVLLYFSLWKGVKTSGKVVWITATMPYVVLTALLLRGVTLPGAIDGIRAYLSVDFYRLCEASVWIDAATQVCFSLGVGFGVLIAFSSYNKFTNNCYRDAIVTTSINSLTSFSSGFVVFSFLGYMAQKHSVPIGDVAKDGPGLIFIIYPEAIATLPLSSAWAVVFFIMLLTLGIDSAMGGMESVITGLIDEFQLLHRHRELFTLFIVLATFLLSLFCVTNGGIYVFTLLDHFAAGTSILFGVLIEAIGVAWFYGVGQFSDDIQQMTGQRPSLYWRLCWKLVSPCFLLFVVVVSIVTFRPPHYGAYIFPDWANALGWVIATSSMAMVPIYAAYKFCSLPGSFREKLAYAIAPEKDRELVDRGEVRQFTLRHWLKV
T5 sequence (Q05940 whole entry, species assumed): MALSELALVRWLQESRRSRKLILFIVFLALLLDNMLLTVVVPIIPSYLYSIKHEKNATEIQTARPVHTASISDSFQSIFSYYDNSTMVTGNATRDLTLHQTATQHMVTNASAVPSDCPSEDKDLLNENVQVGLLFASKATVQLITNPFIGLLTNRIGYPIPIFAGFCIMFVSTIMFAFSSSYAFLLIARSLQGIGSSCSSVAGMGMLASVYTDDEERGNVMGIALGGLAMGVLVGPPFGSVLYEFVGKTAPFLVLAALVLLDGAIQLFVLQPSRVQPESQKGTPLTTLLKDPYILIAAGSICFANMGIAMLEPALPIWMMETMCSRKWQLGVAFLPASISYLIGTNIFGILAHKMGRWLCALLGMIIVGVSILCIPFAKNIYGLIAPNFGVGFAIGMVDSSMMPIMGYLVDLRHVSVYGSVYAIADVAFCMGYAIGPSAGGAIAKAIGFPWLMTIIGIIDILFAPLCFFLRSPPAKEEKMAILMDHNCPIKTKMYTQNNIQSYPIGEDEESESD
T2 sequence (P31645 whole entry, species assumed): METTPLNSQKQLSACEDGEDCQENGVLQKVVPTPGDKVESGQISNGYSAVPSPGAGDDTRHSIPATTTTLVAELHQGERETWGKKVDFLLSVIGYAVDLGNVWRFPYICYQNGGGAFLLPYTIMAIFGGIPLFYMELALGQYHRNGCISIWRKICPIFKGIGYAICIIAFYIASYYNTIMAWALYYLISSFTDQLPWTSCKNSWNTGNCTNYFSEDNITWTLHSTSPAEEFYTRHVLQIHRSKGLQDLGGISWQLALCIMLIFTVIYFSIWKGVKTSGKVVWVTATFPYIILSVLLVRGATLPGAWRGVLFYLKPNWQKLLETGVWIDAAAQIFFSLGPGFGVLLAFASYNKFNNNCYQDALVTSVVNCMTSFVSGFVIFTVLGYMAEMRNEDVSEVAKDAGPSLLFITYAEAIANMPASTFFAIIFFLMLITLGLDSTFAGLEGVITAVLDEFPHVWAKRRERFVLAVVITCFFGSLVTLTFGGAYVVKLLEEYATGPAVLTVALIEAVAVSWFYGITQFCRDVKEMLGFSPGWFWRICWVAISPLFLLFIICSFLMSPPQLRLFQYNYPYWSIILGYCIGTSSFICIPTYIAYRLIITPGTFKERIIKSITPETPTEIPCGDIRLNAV
T4 sequence (P23975 whole entry, species assumed): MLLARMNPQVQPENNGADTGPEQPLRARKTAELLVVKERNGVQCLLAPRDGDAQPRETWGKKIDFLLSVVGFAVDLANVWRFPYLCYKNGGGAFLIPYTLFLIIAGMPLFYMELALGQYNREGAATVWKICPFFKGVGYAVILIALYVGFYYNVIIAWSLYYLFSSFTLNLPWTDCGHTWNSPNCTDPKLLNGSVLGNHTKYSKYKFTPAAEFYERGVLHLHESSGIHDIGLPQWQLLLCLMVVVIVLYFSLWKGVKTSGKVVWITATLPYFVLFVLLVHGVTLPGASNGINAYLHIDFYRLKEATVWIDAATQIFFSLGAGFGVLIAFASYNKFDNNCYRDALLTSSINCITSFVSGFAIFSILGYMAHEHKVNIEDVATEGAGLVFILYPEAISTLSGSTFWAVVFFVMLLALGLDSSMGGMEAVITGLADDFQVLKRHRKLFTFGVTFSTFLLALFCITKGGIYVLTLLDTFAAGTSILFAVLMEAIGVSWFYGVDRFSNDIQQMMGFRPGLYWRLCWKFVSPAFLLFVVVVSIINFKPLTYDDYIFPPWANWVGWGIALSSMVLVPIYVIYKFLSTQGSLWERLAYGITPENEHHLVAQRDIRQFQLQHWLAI

Compound	activity at MATs [1]	inhibition at 10 µM [2] [%]	inhibition at 10 µM [3] [%]	inhibition at 10 µM [4] [%]	inhibition at 10 µM [5] [%]	metabolic stability compared to non-deuterated counterparts 14R and 14S ([6]; High Activity)	half-life at 1 μM [6, 11] [h]	microsomal CLint at 1 μM [6, 11] [µL/min/mg]	formation of metabolites 11R and 11S compared to non-deuterated counterparts [7]	half-life at 1 μM [8] [h]	microsomal CLint at 1 μM [8] [µL/min/mg]	Ki [9] [nM]	half-life at 1 μM [10] [h]	microsomal CLint at 1 μM [10] [µL/min/mg]
O=C1CCCCC1(c1ccccc1)N1CCOCC1 (centres unmarked) [Compound 31]	almost no activity	–	–	–	–	–	–	–	–	–	–	–	–	–
[2H]C([2H])([2H])N[C@]1(c2ccccc2)CCCCC1=O [Compound 88S, (S)-2-((methyl-d3)amino)-2-phenylcyclohexan-1-one]	–	28.2	18.6	21.6	-6	increased metabolic stability	0.88	13	attenuated formation; also recorded: decreased formation	2.78	4	800	1.86	6
